Measurements from patent publication US11591288B2, “Compositions and methods for treating atherosclerotic cardiovascular disease” (GAVISH-GALILEE BIO APPLICATIONS LTD., priority 2017, dated 2023).
Like-named read-outs stand apart in the source and are kept apart here.

Tests used:
APOA1 = APOA1 (Homo sapiens, UniProt P02647); experiment: APOA1-lyso-DGTS interaction, Trp fluorescence quenching; format: binding; details: for Kd: read-out: Binding constant Ka, lyso-DGTS-APOA1 (converted)
Procedure: The Trp-fluorescence-quenching method was further used to examine the interaction between lyso-DGTS and APOA1, the major protein component of HDL. Ka and thermodynamic parameters were also calculated (Table 6). […] The values obtained for n were not affected by temperature and were equal to=1 (Table 6).
The thermodynamic parameters: enthalpy (ΔH), entropy (ΔS), and free energy (ΔG) were calculated to characterize the APOA1-lyso-DGTS interaction type.

J774A.1 macrophages [1] = experiment: HDL-mediated cholesterol efflux from macrophage cells; format: cell-based, murine; details: 16.5% without lyso-DGTS
Procedure: Cholesterol efflux Fluorometric Assay Kit (Cell-Based), Biovision was used to measure the effect of lyso-DGTS on HDL-cholesterol efflux.
J774.1 macrophage cells were grown in RPMI 1640 media containing 10% FBS in cell culture flask till ˜90% confluence (37° C. incubator containing 5% CO2). The cells were splitted under sterile conditions using basic cell culture techniques and plate to approximately 1×10^5 cells/well in a 96-well plate (white plate with clear bottom) using 100 μl media/well. After 2 h, the cells attached to the plates, washed with RPMI 1640 media (no serum added) and labeled with 50 μl labeling reagent and 50 μl equilibration buffer, supplied by the kit, for 16 h. 100 μl equilibration buffer alone were added to the background control for measuring background fluorescence. The cells were washed with media and treated for another 4-6 h with 100 μl of RPMI 1640 media containing HDL (25 μg protein) preincubated with lyso-DGTS at various concentrations (0, 10, 20, 50, and 100 μg/ml) for 4 h. To the negative control was added RPMI 1640 media alone.
The fluorescence of the supernatant was measured (excitation/emission=482/515 nm). The cells were solubilized adding 100 μl of Cell Lysis Buffer and shaking on a plate shaker for 30 min at room temperature, and its fluorescence was also measured.
Cholesterol efflux of the treatments was calculated by dividing the fluorescence intensity of the media by total fluorescence intensity of the cell lysate of the same treatment and media.
HDL removes cholesterol from cells, including macrophages. HDL particles were incubated with lyso-DGTS at different concentrations. The HDL ability to efflux cholesterol from J774A.1 macrophages was measured using flouromtric assay (cell-based cholesterol efflux flouromtric assay kit, supplied by Biovision) and expressed as % of cholesterol efflux. […] The cholesterol removal enhanced from 16.5% (without lyso-DGTS) to 22.5%, 31.5%, 36.5%, and 46.5% after incubation with lyso-DGTS at 10, 20, 50, and 100 μg/ml, respectively (FIG. 8).

serum PON1 = molecular target: T1, serum PON1 (Mus musculus, UniProt P52430); experiment: Serum PON1 lactonase activity of Balb/c mice fed with high fat diet; format: in vivo; details: HFD mice, lyso-DGTS 1.43 mg/ml via s.c. osmotic mini-pump, 28 days; vs vehicle
T1 construct: from tissue; host or cells: serum of Balb/c mice
T1 sequence (P52430 whole entry): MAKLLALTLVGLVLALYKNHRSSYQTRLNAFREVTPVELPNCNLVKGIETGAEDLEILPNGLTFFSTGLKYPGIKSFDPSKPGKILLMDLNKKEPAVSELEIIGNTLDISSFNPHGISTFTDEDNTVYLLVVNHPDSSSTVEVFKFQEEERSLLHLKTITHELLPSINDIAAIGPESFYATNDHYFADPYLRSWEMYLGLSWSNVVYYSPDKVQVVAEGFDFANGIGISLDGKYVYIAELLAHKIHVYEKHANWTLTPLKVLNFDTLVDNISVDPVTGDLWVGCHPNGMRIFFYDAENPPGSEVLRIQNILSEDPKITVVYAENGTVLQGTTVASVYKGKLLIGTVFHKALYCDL
Procedure: Eight weeks old Balb/c mice where fed with normal rodent diet (the “non” group n=11) for 12 weeks or with high-fat diet (HFD) for 8 weeks. After 8 weeks, the HFD group was divided into two groups both treated via osmotic mini-pumps implanted subcutaneously: (1) vehicle group (the pumps contained 100 μl of DDW+2% Tween 80; n=9); (2) Lyso-DGTS group (the pumps contained 100 μl lyso-DGTS 1.4 mg/ml in DDW+2% Tween 80; n=1). The mice then continued with the same diet for another 4 weeks. The pumps injected 3.5 μl solution each day for 28 days until the end of the experiment. Blood was drawn and centrifuged at 2000 rpm for five minutes, and the serum was stored at −70° C. until the analyses. Clinical parameters were measured. Serum diluted by 20 with PBS and PON1 lactonase activity was measured using dihydrocumarine assay.
The effect of lyso-DGTS on lactonase PON1 activity was examined using Balb/c mice fed with HFD. […] At the end of the protocol, blood was withdrawn and clinical parameters and lactonase PON1 activity were measured. […] Lactonase PON1 activity of the mice serum was measured using dehydrocumarine assay.

J774A.1 macrophages [2] = experiment: APOA1-mediated cholesterol efflux from macrophage cells; format: cell-based, murine
Procedure: J774A.1 cells were incubated for 4 h with RPMI buffer (media), APOA1 (10 μg) preincubated with DMSO or with lyso-DGTS (at final concentration of 10, 20, 50, and 100 μg/ml) for 2 h. Fluorescence was measured in media and cells at excitation/emission 482/515 nm. The cholesterol efflux was expressed as % efflux elicited by cells. Each experiment was repeated separately at least three times. *p<0.05, ***p<0.0001 relative to the control (APOA1 incubated with DMSO; n=3). Statistical analysis by one-way ANOVA and Graphpad prism 5 software.
APOA1 was incubated with lyso-DGTS at different concentrations (0, 10, 20, 50, and 100 μg/ml), and its ability to remove cholesterol from J774A.1 macrophages was measured by fluorometric assay (cell-based Cholesterol Efflux Fluorometric Assay Kit) and expressed as % of cholesterol efflux.

APOA1, sequence (P02647 19-267, species assumed): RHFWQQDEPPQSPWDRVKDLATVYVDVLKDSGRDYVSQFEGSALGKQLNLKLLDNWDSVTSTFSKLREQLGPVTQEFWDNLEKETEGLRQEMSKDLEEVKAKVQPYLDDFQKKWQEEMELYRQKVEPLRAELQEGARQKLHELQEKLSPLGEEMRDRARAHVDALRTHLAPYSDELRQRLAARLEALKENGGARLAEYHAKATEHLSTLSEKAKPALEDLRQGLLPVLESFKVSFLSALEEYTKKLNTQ

`CC/C=C\C/C=C\C/C=C\C/C=C\C/C=C\CCCC(=O)OCC(O)COCCC(C(=O)[O-])[N+](C)(C)C` (stereo not drawn) [lyso-DGTS, lyso-diacylglyceryltrimethylhornmoserine] was tested, and the “number of binding sites (n), lyso-DGTS-APOA1” value (APOA1; 298 K) was 1.01 ± 0.05, the “ΔG, lyso-DGTS-APOA1 interaction” value (APOA1; 298 K) was -1.09 kcal/mol and the Kd (APOA1; 298 K (25° C.)) was 422 µM. For the same compound, the “number of binding sites (n), lyso-DGTS-APOA1” value (APOA1; 310 K) was 1.23 ± 0.05, the “ΔG, lyso-DGTS-APOA1 interaction” value (APOA1; 310 K) was -1.464 kcal/mol and the Kd (APOA1; 310 K (37° C.)) was 43.9 µM. The “ΔH, lyso-DGTS-APOA1 interaction” value (APOA1; from 298 and 310 K) was 8.243 kcal/mol, the “ΔS, lyso-DGTS-APOA1 interaction” value (APOA1; from 298 and 310 K) was 131.126 J/mol K and the HDL-mediated cholesterol efflux (J774A.1 macrophages [1]; HDL incubated with 10 μg/ml lyso-DGTS) was 22.5%. For the same compound, the HDL-mediated cholesterol efflux (J774A.1 macrophages [1]; HDL incubated with 20 μg/ml lyso-DGTS) was 31.5%, the HDL-mediated cholesterol efflux (J774A.1 macrophages [1]; HDL incubated with 50 μg/ml lyso-DGTS) was 36.5% and the HDL-mediated cholesterol efflux (J774A.1 macrophages [1]; HDL incubated with 100 μg/ml lyso-DGTS) was 46.5%. For the same compound, the “increase of serum lactonase PON1 activity” value (serum PON1) was roughly 2.3 units, the APOA1-mediated cholesterol efflux (J774A.1 macrophages [2]; APOA1+50 μg/ml lyso-DGTS, p<0.05) was roughly 25% and the APOA1-mediated cholesterol efflux (J774A.1 macrophages [2]; APOA1+100 μg/ml lyso-DGTS, p<0.0001) was roughly 35%.
